Data reported in patent US11413278B2, “Compounds and methods for promoting stress resistance” (priority 2015, dated 2022).
Read-outs that look alike come from different tables or passages of the source.

Experiments:
NRF2 = test: qPCR analysis of NRF2-regulated genes; type: cell-based, human; details: for fold induction at 10 µM: Homo sapiens
Procedure, shortened: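 WI-38 cells treated with compound at 10 μM for 24 hrs, then processed by Cells-to-Ct for RNA isolation, RT and qPCR of NRF2-regulated genes (HMOX1, NQO1, GCLC, GSTM1). Expression normalized to B2M, PPIA and GAPDH; siRNA knockdown of FOXO3 or NRF2 (10 nM) preceded treatment in some runs.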

LC3A/B puncta = test: Autophagy induction analysis (LC3A/B puncta immuno-staining); type: cell-based, human; details: for Exp. 2, normalized change of nuclei numbers (Less cells): 20X objective, lysosomal LAMP co-staining
Protocol: Immuno-staining of LC3A/B was performed, following a standard protocol. Briefly, WI-38 cells were treated with small molecules for 24 hrs, and then processed and incubated with primary antibody (Cell Signaling, rabbit anti-LC3A/B, 1:100) overnight at 4° C. Next day, samples were processed and incubated with fluorophore-conjugated secondary antibody and further incubated with DAPI dye. Images were collected on the INCell Analyzer 2000 (Experiment 1: 10× objective; Experiment 2: 20× objective) and analyzed with the Developer Toolbox. For Experiment 2, lysosomal-associated membrane protein 2 (LAMP2) was also counter-stained to identify the LC3A/B puncta that colocalize with lysosome and the data were analyzed by the MetaXpress software (Molecular Devices, version 5.1). The intensity of total (Exp. 1) or LAMP2-colocalized LC3A/B puncta (Exp. 2) was normalized the total numbers nuclei in the fields.
These assays were performed, following the same procedures to analyze DNA-damage markers. WI-38 cells were incubated with small molecules for 24 hrs, and then processed and incubated with primary antibody (rabbit anti-LC3A/B, 1:100) overnight at 4 C. The next day, samples were processed and incubated with fluorophore-conjugated secondary antibody and further incubated with DAPI dye. Images were collected on an INCell Analyzer 2000 and analyzed with the Developer software. Total LC3A/B puncta intensity was normalized the total numbers of DAPI-positive nuclei.

WI-38 cells = test: Long-term effects on cell viability (5 days, ATP; morphology, PI imaging); type: cell-based; details: 10 μM; for Luminescence signal for ATP measurement, day-1 Average / Luminescence signal for ATP measurement, day-2 Average / Luminescence signal for ATP measurement, day-3 Average / Luminescence signal for ATP measurement, day-4 Average / Luminescence signal for ATP measurement, day-5 Average / viability at 10 µM: Batch 1; for Luminescence signal for ATP measurement, day-1 Average / Luminescence signal for ATP measurement, day-2 Average / Luminescence signal for ATP measurement, day-3 Average / Luminescence signal for ATP measurement, day-4 Average / Luminescence signal for ATP measurement, day-5 Average: n = 6, day-0 luminescence = 320956 ± 24708; for viability at 10 µM: Homo sapiens, WI-38, 120 h, DMSO ctrl = 100.0%, read-out: ATP luminescence by day-5 normalized; for Luminescence signal for ATP measurement, day-5 Average / viability at 10 µM: day-5;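 for Luminescence signal for ATP measurement, day-2 Average: compounds at 10 µM with ATP read daily over 5 days of treatment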;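 for Luminescence signal for ATP measurement, day-3 Average: compounds at 10 µM with ATP read daily over 5 days of treatment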;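 for Luminescence signal for ATP measurement, day-4 Average: compounds at 10 µM with ATP read daily over 5 days of treatment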;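 for Luminescence signal for ATP measurement, day-5 Average: compounds at 10 µM with ATP read daily over 5 days of treatment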
[1] = 24 h, Assay 12(o), at 10 uM, qPCR, read-out: Induction of NRF2-regulated genes: NQO1 normalized fold-change
[2] = rounded fold change, WI-38 cells, 10 μM, 24 hrs (RP11 for Gr-1D, RP29 for Gr-4D), read-out: Summary of effects on NRF2-regulated genes: HMOX1
[3] = rounded fold change, WI-38 cells, 10 μM, 24 hrs (RP29 for Gr-4D), read-out: Summary of effects on NRF2-regulated genes: NQO1
[4] = 10 μM, 24 hrs, WI-38 cells, qPCR, normalized to B2M, n = 4, read-out: HMOX1 expression, normalized fold change (NRF2-regulated gene)
[5] = 10 μM, 24 hrs, WI-38 cells, qPCR, normalized to B2M, n = 4, read-out: NQO1 expression, normalized fold change (NRF2-regulated gene)
[6] = WI-38 cells, 10 μM, 24 hrs, n=4, qPCR normalized by B2M, read-out: GCLC Normalized fold change
[7] = WI-38 cells, 10 μM, 24 hrs, n=4, qPCR normalized by B2M, read-out: GSTM1 Normalized fold change
[8] = WI-38 cells, 10 μM, 24 hrs, n=4, qPCR normalized by B2M, read-out: HMOX1 Normalized fold change
[9] = WI-38 cells, 10 μM, 24 hrs, n=4, qPCR normalized by B2M, read-out: NQO1 Normalized fold change
[10] = 24 h, Assay 12(o), at 10 uM, qPCR, read-out: Induction of NRF2-regulated genes: HMOX1 normalized fold-change
[11] = rounded fold change, WI-38 cells, 10 μM, 24 hrs (RP29 for Gr-4D), read-out: Summary of effects on NRF2-regulated genes: GSTM1
[12] = 10 μM, 24 hrs, WI-38 cells, qPCR, normalized to B2M, n = 4, read-out: GSTM1 expression, normalized fold change (NRF2-regulated gene)

Structure (SMILES) | F = Potential NRF2 Activation (NRF2; 2-point score) | fold induction at 10 µM (NRF2; [1]) | fold induction at 10 µM (NRF2; [2]) | fold induction at 10 µM (NRF2; [3]) | fold induction at 10 µM (NRF2; [4]) | fold induction at 10 µM (NRF2; [6]) | fold induction at 10 µM (NRF2; [7]) | fold induction at 10 µM (NRF2; [8]) | fold induction at 10 µM (NRF2; [9]) | F = Potential NRF2 Activation (NRF2; summary score) | H = Potential Autophagy Induction (LC3A/B puncta; score) | H = Potential Autophagy Induction (LC3A/B puncta; summary score) | O = Potential toxicity (WI-38 cells; human, 5 days) | Q = Potential toxicity (WI-38 cells; human, 5 days) | Luminescence signal for ATP measurement, day-1 Average (WI-38 cells) | Luminescence signal for ATP measurement, day-2 Average (WI-38 cells) | Luminescence signal for ATP measurement, day-3 Average (WI-38 cells) | Luminescence signal for ATP measurement, day-4 Average (WI-38 cells) | Luminescence signal for ATP measurement, day-5 Average (WI-38 cells) | viability at 10 µM (WI-38 cells) [%] | other results
O=[N+]([O-])c1ccccc1S(=O)(=O)Nc1cccc2cccnc12 [Gr-3A] | 0 | 1.3 | 1.41 | 1.37 | 1.41 | 1.01 | 1.35 | 1.41 | 1.37 | 0 | 0 | 0 | 0 | 0 |  |  |  |  |  |  | fold induction at 10 µM (NRF2; [5]): 1.37; Reduction of ATP content after 5 days of continuous incubation (WI-38 cells; human, 5 days): more than 40%
O=C(Nc1cccc(C(F)(F)F)c1)c1ccc([N+](=O)[O-])o1 [Gr-1E] | 0 |  |  |  |  | 1.55 | 2.11 | 1.06 | 1.11 | 0 | 0 | 0 | 0 | 0 | 474558 | 698358 | 788420 | 1038011 | 1066135 | 104 | fold induction at 10 µM (NRF2; 24 h, Assay 12(o), at 10 uM, qPCR, read-out: Induction of NRF2-regulated genes: GCLC normalized fold-change): 1.36; fold induction at 10 µM (NRF2; [10]): 0.79; fold induction at 10 µM (NRF2; [11]): 2.11; fold induction at 10 µM (NRF2; [12]): 2.11; Exp. 1, induction of LC3A/B puncta (Up), total intensity normalized by total number of nuclei in the fields (LC3A/B puncta; Exp. 1, 10 μM, 10X objective, WI-38 cells): Up, 260%, p < 0.01; Exp. 2, normalized change of nuclei numbers (Less cells) (LC3A/B puncta; Exp. 2, 10 μM, WI-38 cells): Less cells, 75%,; Exp. 2, normalized change of nuclei numbers (Less cells) (LC3A/B puncta; Exp. 2, 20 μM, WI-38 cells): Less cells, 58%,
CCc1ccc(Oc2nc3ccccn3c(=O)c2/C=C(\C#N)C(=O)NCc2ccco2)cc1 [Gr-5B] | 2 | 1.94 | 1.73 | 1.94 | 1.73 | 1.15 | 1.27 | 1.73 | 1.94 | 2 | 0 | 0 | 0 | 0 | 529430 | 736318 | 867160 | 1091073 | 1104305 | 108 | Potential NRF2 Activation (>=2 target genes induced, by >=1.5-fold) (NRF2; Assay 13(p)): YES; fold induction at 10 µM (NRF2; 24 h, Assay 12(o), at 10 uM, qPCR, read-out: Induction of NRF2-regulated genes: GSTM1 normalized fold-change): 1.27; fold induction at 10 µM (NRF2; [10]): 1.73; fold induction at 10 µM (NRF2; [11]): 1.27; fold induction at 10 µM (NRF2; 10 μM, 24 hrs, WI-38, read-out: Expression of at least two NRF2 target genes): > 1.5; fold induction at 10 µM (NRF2; [12]): 1.27; fold induction at 10 µM (NRF2; [5]): 1.94
Oc1ncnc2sc3c(c12)CCC3 [O14] | 0 |  |  |  |  | 1.07 | 1.53 | 1.11 | 0.871 | 0 | 0 | 0 | 0 | 0 | 581665 | 685103 | 819423 | 1074238 | 1052551 | 102 | 
